Data taken from patent US20230365546A1, “5-SUBSTITUTED INDOLE 3-AMIDE DERIVATIVES, PREPARATION METHOD AND USE THEREOF” (ORIGIANT PHARMACEUTICAL CO., LTD, priority 2020, published 2023).
pEC50, pIC50: −log10 of the molar value.

Experiments:
[1] = target: RIPK1 (Homo sapiens (Human), UniProt Q13546); test: In vitro kinase assay (Eurofins Kinase Profiler), IC50; assay type: biochemical; settings: 0.001-10 μM, read-out: RIPK 1 (IC50)
Experimental: In vitro kinase assays were conducted using Kinase Profiler services provided by Eurofins. The experimental method was as follows: the small molecule compound to be tested (0.001-10 μM), the protein kinase to be tested were incubated with a buffer containing substrate, 10 mM magnesium acetate, and [γ-^33P-ATP], the reaction was started by adding Mg\TPmix, after incubation for a period of time at room temperature, a 3% phosphate solution was added to the buffer to stop the reaction. Subsequently, 10 μL of the reaction mixture was quantitatively pipetted onto P30 filter paper, which was washed three times with 75 mM phosphate solution and then once with methanol. The P30 filter paper was air-dried and scintillation fluid was added for scintillation counting.

[2] = test system: HT-29 cells; test: Protection against programmed necrosis of HT-29 cells (TNF α/Smac mimetic/Z-VAD-FMK, CCK8); assay type: cell-based; settings: Homo sapiens, TNF α/Smac mimetic/Z-VAD-FMK induced 24 h, CCK8, read-out: HT-29 (EC50)
Experimental: In vitro protection against programmed necrosis of HT-29 cells was conducted by ourselves.
DMEM medium was purchased from Gibco Inc., penicillin and streptomycin were purchased from HyClone Inc., TNF α was purchased from PeproTech Inc., Smac mimetic and Z-VAD-FMK were purchased from Selleck Inc., CCK8 was purchased from Medchem Express Inc.
HT-29 cells (colon cancer cells) were cultured in DMEM+10% FBS+Penicillin/Streptomycin medium. During the experiments, HT-29 cells in logarithmic growth phase were harvested, seeded in a 96-well plate at specific numbers per well (typically 8×10^3 cells/well of adherent cells) and cultured overnight in a 37° C., 5% CO2 cell culture incubator. The next day, the compounds to be tested were diluted with culture medium to the corresponding concentrations and added into the corresponding wells of a 96-well plate, with 3 replicate wells for each sample, and a Vehicle control group and a blank Control group containing only culture medium were set at the same time. […] The absorbance was measured at 495 nm wavelength using a microplate reader, and the protection rate of the drug on the cells necrosis was calculated according to the following formula:
Protection rate of cell necrosis=[(X−C0)/(C−C0)]×100%
Wherein, C, C0, and X represent the mean absorbance values of the Vehicle control group, Blank control group and Drug treatment group, respectively.

Sequence of RIPK1 (Q13546 whole entry): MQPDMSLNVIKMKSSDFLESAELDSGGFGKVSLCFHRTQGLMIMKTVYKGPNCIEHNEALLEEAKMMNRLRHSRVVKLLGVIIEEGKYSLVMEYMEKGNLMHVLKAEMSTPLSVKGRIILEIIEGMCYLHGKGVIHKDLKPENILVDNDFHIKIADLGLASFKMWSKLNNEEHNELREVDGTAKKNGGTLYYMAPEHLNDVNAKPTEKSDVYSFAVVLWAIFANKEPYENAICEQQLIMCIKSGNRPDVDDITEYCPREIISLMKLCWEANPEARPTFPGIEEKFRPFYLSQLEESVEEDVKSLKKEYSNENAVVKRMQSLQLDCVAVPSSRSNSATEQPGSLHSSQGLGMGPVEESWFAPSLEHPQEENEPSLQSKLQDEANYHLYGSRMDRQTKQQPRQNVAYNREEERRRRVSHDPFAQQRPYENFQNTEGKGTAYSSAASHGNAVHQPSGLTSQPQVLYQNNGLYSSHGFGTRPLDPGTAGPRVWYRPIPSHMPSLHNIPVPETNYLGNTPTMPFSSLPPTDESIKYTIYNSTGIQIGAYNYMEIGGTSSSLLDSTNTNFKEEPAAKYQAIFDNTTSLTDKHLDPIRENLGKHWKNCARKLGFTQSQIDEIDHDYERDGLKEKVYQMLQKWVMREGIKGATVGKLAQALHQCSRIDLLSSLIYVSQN

| SMILES | pIC50 [1] | pEC50 [2] |
| --- | --- | --- |
| CC(C)C(=O)Nc1nc2ccc(-c3ccc4[nH]cc(C(=O)N[C@@H](C)c5cccc(F)c5)c4c3)cc2s1 [Compound 55] | 7.00 to 8.00 | 8.00 to 9.00 |
| CC(C)n1cc(C(=O)NCc2cc(F)ccc2F)c2cc(-c3ccc4nc(NC(=O)C5CC5)sc4c3)ccc21 [Compound 56] | 7.00 to 8.00 | 8.00 to 9.00 |
| CCCn1cc(C(=O)NCc2cc(F)ccc2F)c2cc(-c3ccc4nc(NC(=O)C5CC5)sc4c3)ccc21 [Compound 57] | 6.00 to 7.00 | 7.00 to 8.00 |
| CCCCn1cc(C(=O)NCc2cc(F)ccc2F)c2cc(-c3ccc4nc(NC(=O)C5CC5)sc4c3)ccc21 [Compound 58] | 6.00 to 7.00 | 6.00 to 7.00 |
| C[C@H](NC(=O)c1n[nH]c2ccc(-c3ccc4nc(NC(=O)C5CC5)sc4c3)cc12)c1cccc(F)c1 [Compound 59] | 7.00 to 8.00 | 8.00 to 9.00 |
| COc1cc(F)ccc1NC(=O)c1c[nH]c2ncc(-c3ccc4nc(NC(=O)C5CC5)sc4c3)cc12 [Compound 60] | ≤ 6.00 | ≤ 6.00 |
| COc1cc(F)ccc1NC(=O)c1n[nH]c2ccc(-c3ccc4nc(NC(=O)C5CC5)sc4c3)cc12 [Compound 61] | ≤ 6.00 | ≤ 6.00 |
| C[C@H](NC(=O)c1c[nH]c2ncc(-c3ccc4nc(NC(=O)C5CC5)sc4c3)cc12)c1cccc(F)c1 [Compound 62] | 6.00 to 7.00 | 8.00 to 9.00 |
| COc1ccc(NC(=O)c2c[nH]c3ncc(-c4ccc5nc(NC(=O)C6CC6)sc5c4)cc23)cc1OC [Compound 63] | 7.00 to 8.00 | 7.00 to 8.00 |
| COc1ccc(CNC(=O)c2c[nH]c3ncc(-c4ccc5nc(NC(=O)C6CC6)sc5c4)cc23)cc1OC [Compound 64] | 6.00 to 7.00 | 7.00 to 8.00 |
| COc1ccc(CNC(=O)c2cn(C)c3ccc(-c4ccc5nc(NC(=O)C6CC6)sc5c4)cc23)cc1OC [Compound 65] | 6.00 to 7.00 | 7.00 to 8.00 |
| Cn1cc(C(=O)N2CCN(Cc3ccc4c(c3)OCO4)CC2)c2cc(-c3ccc4nc(NC(=O)C5CC5)sc4c3)ccc21 [Compound 66] | ≤ 6.00 | ≤ 6.00 |
| COc1cc(CN2CCN(C(=O)c3cn(C)c4ccc(-c5ccc6nc(NC(=O)C7CC7)sc6c5)cc34)CC2)cc(OC)c1OC [Compound 67] | ≤ 6.00 | ≤ 6.00 |
| C[C@H](NC(=O)c1cn(C)c2ccc(-c3ccc(CN4CCN(C)CC4)cc3)cc12)c1cccc(F)c1 [Compound 68] | ≤ 6.00 | ≤ 6.00 |
| Cc1noc(C)c1-c1cnc2[nH]cc(C(=O)N[C@@H](C)c3cccc(F)c3)c2c1 [Compound 69] | ≤ 6.00 | ≤ 6.00 |
| C[C@H](NC(=O)c1cn(C)c2ccc(-c3ccc(C(=O)N4CCOCC4)cc3)cc12)c1cccc(F)c1 [Compound 70] | ≤ 6.00 | 6.00 to 7.00 |
| C[C@H](NC(=O)c1cn(C)c2ccc(-c3ccnn3C3CCCCO3)cc12)c1cccc(F)c1 (stereo partly drawn) [Compound 71] | ≤ 6.00 | ≤ 6.00 |
| C[C@H](NC(=O)c1cn(C)c2ccc(-c3ccc(N4CCOCC4)cc3)cc12)c1cccc(F)c1 [Compound 72] | ≤ 6.00 | ≤ 6.00 |
| C[C@H](NC(=O)c1cn(C)c2ccc(-c3ccc(N4CCOCC4)nc3)cc12)c1cccc(F)c1 [Compound 73] | ≤ 6.00 | ≤ 6.00 |
| C[C@H](NC(=O)c1c[nH]c2ncc(-c3ccc(C(=O)N4CCOCC4)cc3)cc12)c1cccc(F)c1 [Compound 74] | 6.00 to 7.00 | 6.00 to 7.00 |
| C[C@H](NC(=O)c1c[nH]c2ncc(-c3ccnn3C3CCCCO3)cc12)c1cccc(F)c1 (stereo partly drawn) [Compound 75] | ≤ 6.00 | 6.00 to 7.00 |
| C[C@H](NC(=O)c1c[nH]c2ncc(-c3ccc(N4CCOCC4)cc3)cc12)c1cccc(F)c1 [Compound 76] | 6.00 to 7.00 | 6.00 to 7.00 |
| C[C@H](NC(=O)c1c[nH]c2ncc(-c3ccc(N4CCOCC4)nc3)cc12)c1cccc(F)c1 [Compound 77] | 6.00 to 7.00 | 6.00 to 7.00 |
| C[C@H](NC(=O)c1cn(C)c2ccc(-c3cc[nH]n3)cc12)c1cccc(F)c1 [Compound 78] | ≤ 6.00 | 6.00 to 7.00 |
| Cn1cc(C(=O)NCc2ccc(F)cc2)c2cc(-c3ccc4nc(NC(=O)C5CC5)sc4c3)ccc21 [Compound 79] | 6.00 to 7.00 | 7.00 to 8.00 |
| O=C(NCc1ccc(F)cc1F)c1c[nH]c2ncc(-c3ccc4nc(NC(=O)C5CC5)sc4c3)cc12 [Compound 80] | 6.00 to 7.00 | 7.00 to 8.00 |
| C[C@H](NC(=O)c1c[nH]c2ccc(-c3ccc4nc(NC(=O)C5CC5)[nH]c4c3)cc12)c1cccc(F)c1 [Compound 81] | 7.00 to 8.00 | 6.00 to 7.00 |

| SMILES | pIC50 [1] | pEC50 [2] |
| --- | --- | --- |
| C[C@H](NC(=O)c1c[nH]c2ccc(-c3ccn4nc(NC(=O)C5CC5)nc4c3)cc12)c1cccc(F)c1 [Compound 82] | 7.00 to 8.00 | 6.00 to 7.00 |
| C[C@H](NC(=O)c1c[nH]c2ccc(-c3ccc4c(N)ncnn34)cc12)c1cccc(F)c1 [Compound 83] | 6.00 to 7.00 | 6.00 to 7.00 |
| Cc1noc(C)c1CNC(=O)c1c[nH]c2ccc(-c3ccc4nc(NC(=O)C5CC5)sc4c3)cc12 [Compound 84] | 6.00 to 7.00 | 6.00 to 7.00 |
| O=C(NCc1ccn[nH]1)c1c[nH]c2ccc(-c3ccc4nc(NC(=O)C5CC5)sc4c3)cc12 [Compound 85] | ≤ 6.00 | ≤ 6.00 |
| Cn1cc(CNC(=O)c2c[nH]c3ccc(-c4ccc5nc(NC(=O)C6CC6)sc5c4)cc23)cn1 [Compound 86] | ≤ 6.00 | ≤ 6.00 |
| O=C(NCc1ccc2[nH]ccc2c1)c1c[nH]c2ccc(-c3ccc4nc(NC(=O)C5CC5)sc4c3)cc12 [Compound 87] | ≤ 6.00 | ≤ 6.00 |
| C[C@H](NC(=O)c1c[nH]c2ccc(-c3ccc4nc(NC(=O)C5CC5)sc4n3)cc12)c1cccc(F)c1 [Compound 88] | 7.00 to 8.00 | 8.00 to 9.00 |
| C[C@H](NC(=O)c1cn(C)c2ccc(-c3ccc4nc(NC(=O)C5CC5)sc4n3)cc12)c1cccc(F)c1 [Compound 89] | 7.00 to 8.00 | 8.00 to 9.00 |
| COCC(=O)Nc1nc2ccc(-c3ccc4c(c3)c(C(=O)N[C@@H](C)c3cccc(F)c3)cn4C)nc2s1 [Compound 91] | 6.00 to 7.00 | 6.00 to 7.00 |
| COCC(=O)Nc1nc2ccc(-c3ccc4[nH]cc(C(=O)N[C@@H](C)c5cccc(F)c5)c4c3)cn2n1 [Compound 92] | 6.00 to 7.00 | 6.00 to 7.00 |
| O=C(NCc1ccc(N2CCOCC2)cc1)c1c[nH]c2ccc(-c3ccc4nc(NC(=O)C5CC5)sc4c3)cc12 [Compound 93] | ≤ 6.00 | ≤ 6.00 |
| COCC(=O)Nc1nc2ccc(-c3ccc4[nH]cc(C(=O)NCc5cccc(F)c5)c4c3)cn2n1 [Compound 95] | 6.00 to 7.00 | 6.00 to 7.00 |
| COCC(=O)Nc1nc2ccc(-c3ccc4c(c3)c(C(=O)N[C@@H](C)c3cccc(F)c3)cn4C)cn2n1 [Compound 96] | 7.00 to 8.00 | 7.00 to 8.00 |
| O=C(NCc1ccc(N2CCOCC2)cc1)c1c[nH]c2ccc(-c3ccn4nc(NC(=O)C5CC5)nc4c3)cc12 [Compound 97] | ≤ 6.00 | ≤ 6.00 |
| Cn1cc(C(=O)NCc2ccc(N3CCOCC3)cc2)c2cc(-c3ccn4nc(NC(=O)C5CC5)nc4c3)ccc21 [Compound 98] | ≤ 6.00 | ≤ 6.00 |
| O=C(NCc1ccc(N2CCOCC2)cc1)c1c[nH]c2ccc(-c3ccc4nc(NC(=O)C5CC5)sc4n3)cc12 [Compound 99] | ≤ 6.00 | ≤ 6.00 |
| Cn1cc(C(=O)NCc2ccc(N3CCOCC3)cc2)c2cc(-c3ccc4nc(NC(=O)C5CC5)sc4n3)ccc21 [Compound 100] | ≤ 6.00 | ≤ 6.00 |
| Cc1ccc(CCNC(=O)c2n[nH]c3ccc(-c4ccc5c(N)ncnn45)cc23)cc1 [Compound 101] | 7.00 to 8.00 | 6.00 to 7.00 |
| Nc1ncnn2c(-c3ccc4[nH]nc(C(=O)NCCc5cccc(F)c5)c4c3)ccc12 [Compound 102] | 6.00 to 7.00 | 6.00 to 7.00 |
| Nc1ncnn2c(-c3ccc4[nH]nc(C(=O)NCCc5ccc(F)cc5)c4c3)ccc12 [Compound 103] | 7.00 to 8.00 | 6.00 to 7.00 |
| C[C@H](NC(=O)c1cn(C)c2ccc(-c3ccc4c(NC(=O)C5CC5)n[nH]c4c3)cc12)c1cccc(F)c1 [Compound 104] | 8.00 to 9.00 | > 9.00 |
| CC(C)C(=O)Nc1nc2cc(-c3ccc4c(c3)c(C(=O)NC(C)c3ccccc3)cn4C)ccn2n1 (stereo not drawn) [Compound 105] | 7.00 to 8.00 | 8.00 to 9.00 |
| CC(C)C(=O)Nc1nc2cc(-c3ccc4c(c3)c(C(=O)N[C@@H](C)c3cccc(F)c3)cn4C)ccn2n1 [Compound 106] | 8.00 to 9.00 | > 9.00 |
| CC(C)C(=O)Nc1nc2ccc(-c3ccc4c(c3)c(C(=O)N[C@@H](C)c3cccc(F)c3)cn4C)cn2n1 [Compound 107] | 7.00 to 8.00 | 8.00 to 9.00 |
| C[C@H](NC(=O)c1cn(C)c2ccc(-c3ccn4nc(NC(=O)C5CC5)cc4n3)cc12)c1cccc(F)c1 [Compound 108] | 8.00 to 9.00 | 8.00 to 9.00 |
| C[C@H](NC(=O)c1cn(C)c2ccc(-c3ccc4nc(NC(=O)C5CC5)cn4n3)cc12)c1cccc(F)c1 [Compound 109] | 8.00 to 9.00 | > 9.00 |
| CCn1cc(C(=O)N[C@@H](C)c2cccc(F)c2)c2cc(-c3ccc4c(NC(=O)C5CC5)n[nH]c4c3)ccc21 [Compound 111] | 8.00 to 9.00 | > 9.00 |
